From article PMC4321377, “Multiple signals modulate the activity of the complex sensor kinase TodS” (Microbial Biotechnology, 2014)

Biological target: T1, TodS (Pseudomonas putida, UniProt E0X9C7)
T1 construct: full-length TodS, N-terminal His tag
Experiment: autophosphorylation assay with [γ-32P]ATP of purified TodS; ITC showed an exothermic chemical reaction
Format: biochemical

T1 sequence (E0X9C7 whole entry): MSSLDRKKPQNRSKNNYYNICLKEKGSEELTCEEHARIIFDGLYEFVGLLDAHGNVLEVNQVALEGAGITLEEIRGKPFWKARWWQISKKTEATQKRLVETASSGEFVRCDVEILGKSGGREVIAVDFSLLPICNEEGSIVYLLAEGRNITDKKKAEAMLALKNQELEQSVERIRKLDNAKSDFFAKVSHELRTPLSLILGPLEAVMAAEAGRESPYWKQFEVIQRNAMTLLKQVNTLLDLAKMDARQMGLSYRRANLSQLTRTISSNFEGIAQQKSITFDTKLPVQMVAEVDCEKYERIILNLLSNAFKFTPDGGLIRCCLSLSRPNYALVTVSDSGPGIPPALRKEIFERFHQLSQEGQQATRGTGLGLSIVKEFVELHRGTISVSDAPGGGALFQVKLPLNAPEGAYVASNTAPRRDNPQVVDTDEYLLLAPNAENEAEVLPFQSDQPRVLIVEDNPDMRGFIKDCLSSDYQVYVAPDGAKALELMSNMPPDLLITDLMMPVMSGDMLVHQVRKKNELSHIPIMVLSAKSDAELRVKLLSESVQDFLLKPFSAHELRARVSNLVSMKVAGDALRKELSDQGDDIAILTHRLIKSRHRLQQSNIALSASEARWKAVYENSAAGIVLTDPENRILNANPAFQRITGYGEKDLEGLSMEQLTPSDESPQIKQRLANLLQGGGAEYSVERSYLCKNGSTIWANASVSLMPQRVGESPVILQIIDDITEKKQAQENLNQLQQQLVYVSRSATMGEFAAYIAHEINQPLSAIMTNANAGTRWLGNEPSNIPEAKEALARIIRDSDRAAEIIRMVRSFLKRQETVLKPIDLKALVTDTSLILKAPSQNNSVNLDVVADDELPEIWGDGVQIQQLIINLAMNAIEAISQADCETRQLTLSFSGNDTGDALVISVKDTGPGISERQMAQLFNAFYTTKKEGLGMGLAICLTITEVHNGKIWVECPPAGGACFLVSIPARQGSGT

- EC50: 170 ± 25 µM
SMILES: CC1=CC(=O)c2ccccc2C1=O [menadione, 2-methyl-l,4-naphthoquinone]
